Laboratory results as given in ChEMBL document CHEMBL4145509, “Unravelling the binding mechanism of benproperine with human serum albumin: A docking, fluorometric, and thermodynamic approach” (Eur J Med Chem, 2018).

Key:
Albumin [1] = biological target: T1, Albumin (Homo sapiens, UniProt P02768); test: Binding affinity to human serum albumin assessed as binding constant after 1 hr at 37 degC by fluorescence spectroscopic analysis; format: ADME; conditions: isolated protein
Albumin [2] = biological target: T1, Albumin; test: Induction of conformational changes in human serum albumin assessed as reduction in alpha-helical content at HSA:compound ratio of 1:10 by CD spectral analysis (reference value: 52.6%); design: scale not given: the % may be the effect or the level left
Albumin [3] = biological target: T1, Albumin; test: Binding affinity to human serum albumin assessed as Stern-Volmer quenching constant after 1 hr at 25 degC by fluorescence spectroscopic analysis; format: ADME; conditions: isolated protein
Albumin [4] = biological target: T1, Albumin; test: Binding affinity to human serum albumin assessed as Stern-Volmer quenching constant after 1 hr at 37 degC by fluorescence spectroscopic analysis; format: ADME; conditions: isolated protein
Albumin [5] = biological target: T1, Albumin; test: Binding affinity to human serum albumin by isothermal titration microcalorimetry; format: ADME; conditions: isolated protein
Albumin [6] = biological target: T1, Albumin; test: Binding affinity to human serum albumin assessed as fluorescence lifetime decay 1 at HSA:compound ratio of 1:2 after 1 hr by fluorescence spectroscopic analysis (reference value: 3.917 +/- 0.039 nanoseconds); format: ADME; conditions: isolated protein
Albumin [7] = biological target: T1, Albumin; test: Binding affinity to human serum albumin assessed as binding constant after 1 hr at 25 degC by fluorescence spectroscopic analysis; format: ADME; conditions: isolated protein
Albumin [8] = biological target: T1, Albumin; test: Induction of conformational changes in human serum albumin assessed as reduction in alpha-helical content at HSA:compound ratio of 1:2 by CD spectral analysis (reference value: 52.6%); design: scale not given: the % may be the effect or the level left
Albumin [9] = biological target: T1, Albumin; test: Binding affinity to human serum albumin assessed as fluorescence lifetime decay 2 at HSA:compound ratio of 1:2 after 1 hr by fluorescence spectroscopic analysis (reference value: 0.584 +/- 0.047 nanoseconds); format: ADME; conditions: isolated protein
Albumin [10] = biological target: T1, Albumin; test: Binding affinity to human serum albumin assessed as fluorescence lifetime decay 3 at HSA:compound ratio of 1:10 after 1 hr by fluorescence spectroscopic analysis (reference value: 6.876 +/- 0.177 nanoseconds); format: ADME; conditions: isolated protein
Albumin [11] = biological target: T1, Albumin; test: Binding affinity to human serum albumin assessed as fluorescence lifetime decay 1 at HSA:compound ratio of 1:10 after 1 hr by fluorescence spectroscopic analysis (reference value: 3.917 +/- 0.039 nanoseconds); format: ADME; conditions: isolated protein
Albumin [12] = biological target: T1, Albumin; test: Binding affinity to human serum albumin assessed as fluorescence lifetime decay 3 at HSA:compound ratio of 1:2 after 1 hr by fluorescence spectroscopic analysis (reference value: 6.876 +/- 0.177 nanoseconds); format: ADME; conditions: isolated protein
Albumin [13] = biological target: T1, Albumin; test: Binding affinity to human serum albumin assessed as fluorescence lifetime decay 2 at HSA:compound ratio of 1:10 after 1 hr by fluorescence spectroscopic analysis (reference value: 0.584 +/- 0.047 nanoseconds); format: ADME; conditions: isolated protein

T1 sequence (P02768 whole entry): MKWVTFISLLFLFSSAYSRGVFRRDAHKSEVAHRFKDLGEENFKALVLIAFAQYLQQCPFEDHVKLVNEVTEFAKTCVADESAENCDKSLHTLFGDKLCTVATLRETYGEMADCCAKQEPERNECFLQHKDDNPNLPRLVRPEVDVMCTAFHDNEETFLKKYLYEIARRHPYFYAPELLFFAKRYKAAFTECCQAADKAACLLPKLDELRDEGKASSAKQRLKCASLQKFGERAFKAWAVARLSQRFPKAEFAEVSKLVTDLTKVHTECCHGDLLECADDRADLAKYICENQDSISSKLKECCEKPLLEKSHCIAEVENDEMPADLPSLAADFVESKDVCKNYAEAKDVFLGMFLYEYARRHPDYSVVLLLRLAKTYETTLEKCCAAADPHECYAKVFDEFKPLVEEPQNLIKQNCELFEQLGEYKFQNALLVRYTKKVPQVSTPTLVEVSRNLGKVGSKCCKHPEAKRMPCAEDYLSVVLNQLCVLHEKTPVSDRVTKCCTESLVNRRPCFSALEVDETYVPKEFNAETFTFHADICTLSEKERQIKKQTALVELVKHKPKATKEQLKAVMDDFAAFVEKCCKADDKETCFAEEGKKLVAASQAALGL

## CC(COc1ccccc1Cc1ccccc1)N1CCCCC1 (stereo not drawn) [BENPROPERINE]
Albumin [1]
  K: 1.1 ×10⁴ L/mol
Albumin [2]
  Activity: 47.88%
Albumin [3]
  KSV: 2.74 ×10⁴ L/mol
Albumin [4]
  KSV: 1.99 ×10⁴ L/mol
Albumin [5]
  K: 1.97 ×10⁴ L/mol
Albumin [6]
  Time: 3.852 nanoseconds
Albumin [7]
  K: 2.01 ×10⁴ L/mol
Albumin [8]
  Activity: 49.06%
Albumin [9]
  Time: 0.515 nanoseconds
Albumin [10]
  Time: 6.84 nanoseconds
Albumin [11]
  Time: 3.699 nanoseconds
Albumin [12]
  Time: 6.858 nanoseconds
Albumin [13]
  Time: 0.488 nanoseconds
